According to patent US20260256772A1, “BENZOTHIAZOLE COMPOUND AND USE THEREOF” (NANJING REJU THERAPEUTICS, INC., priority 2022, published 2026):

How the values were obtained:
[1] = Solubility test in pure water; type: physicochemical
Procedure: The following test protocol was used for the solubility tests of the compounds of the present invention:
1). The compounds to be tested were precisely weighed respectively, and formulated to a corresponding concentration (l mg/mL or 10 mg/mL) by adding a corresponding volume of pure water vortically shook for 1 minute every 3 minutes for 15 minutes to observe the dissolution, and then the dissolution was observed again after standing for 1 hour. 2). 0.2 mL of 1 mg/mL compound or sodium salt thereof was took, diluted to 0.1 mg/mL respectively by adding 1.8 mL water, vortically shook for 5 minutes to observe the dissolution, and then the dissolution was observed again after standing for 1 hour. 3). 1 mL of 1 mg/mL compound or sodium salt thereof was took, diluted to 0.5 mg/mL by adding 1 mL water, vortically shook for 5 minutes to observe the dissolution, and then the dissolution was observed again after standing for 1 hour.

platelets [2] = assay: Platelet toxicity test in mice (platelet count); type: in vivo; conditions: mice, 0.5 mg/kg single intraperitoneal injection, blood at 6 hours, FIG. 1
Procedure: In this test example, C57 mice were chosen to detect the effect of the target compounds on platelets.
7 to 8 weeks old […] mice were randomly divided into vehicle group and compound group. The test compound (0.5 mg/kg) or blank vehicle was administrated via single intraperitoneal injection. Blood was collected from the retroorbital venous plexus of the mice at 6 hours, and placed in a blood routine tube containing anticoagulant EDTA-K2. After shaking gently, the blood physiological indicators were measured using a hematology analyzer, with the platelet count as the target parameter for this platelet toxicity test.

senescent cells = assay: Senescent cell killing, CellTiter-Glo cell viability; type: cell-based, human, mouse; conditions: activity of killing senescent cells; cell type not specified
Description: In this test example, human non-small cell lung cancer cell line (A549 cells), human embryonic lung fibroblast cell line (IMR90 cells), human retinal pigment epithelial cells (RPE cells), mouse chondrocytes, and mouse skin fibroblasts were selected. The above cells were induced by etoposide ([…]) to obtain their senescent cells. The effect of the target compounds on the viability of normal and senescent cells above was examined, thus assessing the specific killing effect of the compounds on senescent cells above.
Briefly, senescent and normal cells above were selected and plated separately (96-well plates). […] 2A to 2E.

[3] = rats; cited from earlier work
[4] = cited from earlier work
platelets [5] = conditions: under in vivo conditions; cited from earlier work

Question: With `Cc1c(-c2ccc(N3CCc4cccc(C(=O)Nc5nc6ccccc6s5)c4C3)nc2C(=O)O)cnn1CC12CC3CC(CC(C3)C1)C2` [Compound A-1331852] as the compound, how does the During shaking ([1]; formulated concentration 0.10 mg/mL in pure water) read?
Answer: The During shaking was “Visible solute particles”.

Question: And the During shaking ([1]; formulated concentration 1 mg/mL in pure water)?
Answer: The During shaking was “Visible solute particles”.

Question: What about the “platelet toxicity (platelet count)” value (platelets [2]) of the same compound?
Answer: Its value is “severe platelet toxicity”.

Question: What about the IC50 (senescent cells) of the same compound?
Answer: Its IC50 is 0.2 to 1 µM.

Question: What about the oral bioavailability [3] of the same compound?
Answer: Its oral bioavailability is “about 11%”.

Question: What about the solubility in water [4] of the same compound?
Answer: The solubility in water was “low solubility in water”.

Question: And the platelet toxicity (platelets [5])?
Answer: Its platelet toxicity is “significant platelet toxicity”.
